Results as given in patent US8192962B2, “Processes for detecting toxic substances” (Daikin Industries, Ltd., priority 2001, dated 2012).

Tested on: Metabolism protein genes
Assay: DNA chip mRNA expression in yeast, metabolism protein genes (Table 7)
Assay type: cell-based, Saccharomyces cerevisiae S288C
Procedure: Yeast (Saccharomyces cerevisiae S288C (α SUC2mal mel gap2 CUP1)) were incubated at 25° C. on YPD medium (yeast extract 1%, polypepton 2%, glucose 2%). One of toxic chemical substances was added to the cells at logarithmic growth phase, and the cells were further incubated for two hours. Cells were cultured without any chemical substance in the same condition, and were used as control. Concentrations of the chemical substances were defined to inhibit the growth of the yeast but not lead to death.
After completion of the incubation, the culture was centrifuged to collect the cells. To the cells, sodium acetate buffer (50 mM sodium acetate, 10 mM EDTA, 1% SDS) was added, and the mixture was shaken at 65° C. for five minutes, followed by returning to room temperature, and obtaining the supernatant, of which the procedures were repeated two times. To the supernatant, ½ amount of a solution of phenol/chloroform was added, and the mixture was centrifuged to give a supernatant, which was added with an equal amount of chloroform, and the mixture was centrifuged to give a supernatant. To the supernatant, an equal amount of isopropanol containing 0.3 M sodium acetate was added, and the mixture was allowed to stand at room temperature for 30 minutes, after which the mixture was centrifuged to give a sediment of the whole RNAs. Seventy % ethanol was added to the sediment, and the mixture was again centrifuged to give a sediment, which was then dried and dissolved in water. mRNA was isolated from the whole RNAs as followings. In view of the fact that a poly A chain is attached to the 3′ terminus of mRNA, a polynucleotide having a poly T structure which was immobilized on the surface of latex beads was used to trap the mRNA, and then the mRNA was washed and eluted with spine column (Oligotex-dT30<Super>mRNA Purification Kit, Takara). Reverse transcription of the mRNA was conducted with a reverse transcriptase (Super Script II Reverse Transcriptase; catalogue No. 18064-014, GibcoBRL) using fluorescence-labeled nucleotides to give cDNAs that were introduced with Cy3-dUTP or Cy5-dUTP during the reverse transcription.
The labeled cDNAs were dissolved in TE buffer (10mM Tris-HCl/1 mM EDTA, pH8.0), and the solution was dropped on the DNA chip containing the whole genes of yeast (DNA Chip Research Inc. Japan) so that the cDNAs were hybridized on the DNA chip at 65° C. for over 12 hours. The fluoresces intensity of the DNA chip was read with a scanner, and the ratio relative to the fluorescence intensity resulting from the absence of chemical substance was estimated as the following, which is shown in Tables 1 to 9: […]

## manganese ethylenebis(dithiocarbamate) [(8)]
Yeast gene YAL012W
  The level of expressed mRNA in the presence of chemical substance/The level of expressed mRNA in the absence of chemical substance: 0.7
Yeast gene YAL038W
  The level of expressed mRNA in the presence of chemical substance/The level of expressed mRNA in the absence of chemical substance: 1.1
Yeast gene YBR003W
  level of expressed mRNA in the presence/in the absence of chemical substance: 0.9
Yeast gene YBR011C
  level of expressed mRNA in the presence/in the absence of chemical substance: 1.3
Yeast gene YBR020W
  level of expressed mRNA in the presence/in the absence of chemical substance: 1.0
Yeast gene YBR023C
  The level of expressed mRNA in the presence of chemical substance/The level of expressed mRNA in the absence of chemical substance: 0.5
Yeast gene YBR029C
  The level of expressed mRNA in the presence of chemical substance/The level of expressed mRNA in the absence of chemical substance: 0.7
Yeast gene YBR183W
  The level of expressed mRNA in the presence of chemical substance/The level of expressed mRNA in the absence of chemical substance: 1.0
Yeast gene YBR222C
  The level of expressed mRNA in the presence of chemical substance/The level of expressed mRNA in the absence of chemical substance: 0.6
Yeast gene YBR256C
  The level of expressed mRNA in the presence of chemical substance/The level of expressed mRNA in the absence of chemical substance: 2.3
Yeast gene YCL009C
  The level of expressed mRNA in the presence of chemical substance/The level of expressed mRNA in the absence of chemical substance: 1.1
Yeast gene YCL064C
  The level of expressed mRNA in the presence of chemical substance/The level of expressed mRNA in the absence of chemical substance: 2.4
Yeast gene YCR010C
  level of expressed mRNA in the presence/in the absence of chemical substance: 0.8
Yeast gene YCR034W
  level of expressed mRNA in the presence/in the absence of chemical substance: 0.9
Yeast gene YCR048W
  The level of expressed mRNA in the presence of chemical substance/The level of expressed mRNA in the absence of chemical substance: 0.8
Yeast gene YCR098C
  The level of expressed mRNA in the presence of chemical substance/The level of expressed mRNA in the absence of chemical substance: 1.0
Yeast gene YDR019C
  The level of expressed mRNA in the presence of chemical substance/The level of expressed mRNA in the absence of chemical substance: 0.7
Yeast gene YDR050C
  level of expressed mRNA in the presence/in the absence of chemical substance: 1.3
Yeast gene YDR073W
  level of expressed mRNA in the presence/in the absence of chemical substance: 1.3
Yeast gene YDR123C
  level of expressed mRNA in the presence/in the absence of chemical substance: 1.3
Yeast gene YDR178W
  level of expressed mRNA in the presence/in the absence of chemical substance: 0.9
Yeast gene YDR277C
  level of expressed mRNA in the presence/in the absence of chemical substance: 1.7
Yeast gene YDR284C
  level of expressed mRNA in the presence/in the absence of chemical substance: 0.9
Yeast gene YDR345C
  level of expressed mRNA in the presence/in the absence of chemical substance: 1.2
Yeast gene YDR380W
  The level of expressed mRNA in the presence of chemical substance/The level of expressed mRNA in the absence of chemical substance: 0.2
Yeast gene YDR400W
  level of expressed mRNA in the presence/in the absence of chemical substance: 1.4
Yeast gene YDR408C
  level of expressed mRNA in the presence/in the absence of chemical substance: 0.7
Yeast gene YDR483W
  level of expressed mRNA in the presence/in the absence of chemical substance: 1.0
Yeast gene YDR497C
  The level of expressed mRNA in the presence of chemical substance/The level of expressed mRNA in the absence of chemical substance: 0.6
Yeast gene YDR502C
  The level of expressed mRNA in the presence of chemical substance/The level of expressed mRNA in the absence of chemical substance: 0.9
Yeast gene YDR516C
  The level of expressed mRNA in the presence of chemical substance/The level of expressed mRNA in the absence of chemical substance: 1.3
Yeast gene YEL063C
  level of expressed mRNA in the presence/in the absence of chemical substance: 0.6
Yeast gene YER015W
  level of expressed mRNA in the presence/in the absence of chemical substance: 1.1
Yeast gene YER026C
  The level of expressed mRNA in the presence of chemical substance/The level of expressed mRNA in the absence of chemical substance: 0.8
Yeast gene YER053C
  The level of expressed mRNA in the presence of chemical substance/The level of expressed mRNA in the absence of chemical substance: 1.3
Yeast gene YER069W
  The level of expressed mRNA in the presence of chemical substance/The level of expressed mRNA in the absence of chemical substance: 1.5
Yeast gene YER081W
  level of expressed mRNA in the presence/in the absence of chemical substance: 0.6
Yeast gene YER096W
  The level of expressed mRNA in the presence of chemical substance/The level of expressed mRNA in the absence of chemical substance: 1.0
Yeast gene YER120W
  level of expressed mRNA in the presence/in the absence of chemical substance: 0.6
Yeast gene YER178W
  The level of expressed mRNA in the presence of chemical substance/The level of expressed mRNA in the absence of chemical substance: 0.8
Yeast gene YFL011W
  level of expressed mRNA in the presence/in the absence of chemical substance: 0.8
Yeast gene YFL014W
  The level of expressed mRNA in the presence of chemical substance/The level of expressed mRNA in the absence of chemical substance: 3.4
Yeast gene YFL030W
  The level of expressed mRNA in the presence of chemical substance/The level of expressed mRNA in the absence of chemical substance: 1.6
Yeast gene YFL031W
  The level of expressed mRNA in the presence of chemical substance/The level of expressed mRNA in the absence of chemical substance: 0.7
Yeast gene YFL056C
  The level of expressed mRNA in the presence of chemical substance/The level of expressed mRNA in the absence of chemical substance: 18.5
Yeast gene YFL057C
  The level of expressed mRNA in the presence of chemical substance/The level of expressed mRNA in the absence of chemical substance: 18.0
Yeast gene YFR047C
  The level of expressed mRNA in the presence of chemical substance/The level of expressed mRNA in the absence of chemical substance: 1.0
Yeast gene YGL012W
  level of expressed mRNA in the presence/in the absence of chemical substance: 0.8
Yeast gene YGL022W
  The level of expressed mRNA in the presence of chemical substance/The level of expressed mRNA in the absence of chemical substance: 0.4
Yeast gene YGL115W
  level of expressed mRNA in the presence/in the absence of chemical substance: 1.0
Yeast gene YGL126W
  The level of expressed mRNA in the presence of chemical substance/The level of expressed mRNA in the absence of chemical substance: 0.7
Yeast gene YGL205W
  level of expressed mRNA in the presence/in the absence of chemical substance: 1.2
Yeast gene YGL209W
  The level of expressed mRNA in the presence of chemical substance/The level of expressed mRNA in the absence of chemical substance: 1.1
Yeast gene YGL248W
  The level of expressed mRNA in the presence of chemical substance/The level of expressed mRNA in the absence of chemical substance: 0.8
Yeast gene YGR037C
  The level of expressed mRNA in the presence of chemical substance/The level of expressed mRNA in the absence of chemical substance: 1.4
Yeast gene YGR055W
  The level of expressed mRNA in the presence of chemical substance/The level of expressed mRNA in the absence of chemical substance: 1.1
Yeast gene YGR096W
  level of expressed mRNA in the presence/in the absence of chemical substance: 1.0
Yeast gene YGR191W
  level of expressed mRNA in the presence/in the absence of chemical substance: 0.7
Yeast gene YGR194C
  The level of expressed mRNA in the presence of chemical substance/The level of expressed mRNA in the absence of chemical substance: 1.2
Yeast gene YGR204W
  level of expressed mRNA in the presence/in the absence of chemical substance: 0.4
Yeast gene YGR256W
  The level of expressed mRNA in the presence of chemical substance/The level of expressed mRNA in the absence of chemical substance: 2.2
Yeast gene YGR282C
  The level of expressed mRNA in the presence of chemical substance/The level of expressed mRNA in the absence of chemical substance: 1.0
Yeast gene YGR288W
  level of expressed mRNA in the presence/in the absence of chemical substance: 1.0
Yeast gene YHR025W
  level of expressed mRNA in the presence/in the absence of chemical substance: 0.8
Yeast gene YHR111W
  The level of expressed mRNA in the presence of chemical substance/The level of expressed mRNA in the absence of chemical substance: 1.3
Yeast gene YHR123W
  level of expressed mRNA in the presence/in the absence of chemical substance: 0.8
Yeast gene YHR137W
  The level of expressed mRNA in the presence of chemical substance/The level of expressed mRNA in the absence of chemical substance: 0.4
Yeast gene YHR174W
  The level of expressed mRNA in the presence of chemical substance/The level of expressed mRNA in the absence of chemical substance: 1.2
Yeast gene YHR176W
  The level of expressed mRNA in the presence of chemical substance/The level of expressed mRNA in the absence of chemical substance: 1.3
Yeast gene YHR210C
  level of expressed mRNA in the presence/in the absence of chemical substance: 1.3
Yeast gene YIL006W
  level of expressed mRNA in the presence/in the absence of chemical substance: 0.6
Yeast gene YIL045W
  The level of expressed mRNA in the presence of chemical substance/The level of expressed mRNA in the absence of chemical substance: 1.1
Yeast gene YIL107C
  The level of expressed mRNA in the presence of chemical substance/The level of expressed mRNA in the absence of chemical substance: 1.3
Yeast gene YIL154C
  The level of expressed mRNA in the presence of chemical substance/The level of expressed mRNA in the absence of chemical substance: 0.6
Yeast gene YIL155C
  The level of expressed mRNA in the presence of chemical substance/The level of expressed mRNA in the absence of chemical substance: 1.0
Yeast gene YIR034C
  The level of expressed mRNA in the presence of chemical substance/The level of expressed mRNA in the absence of chemical substance: 1.7
Yeast gene YIR036C
  The level of expressed mRNA in the presence of chemical substance/The level of expressed mRNA in the absence of chemical substance: 1.0
Yeast gene YJL031C
  The level of expressed mRNA in the presence of chemical substance/The level of expressed mRNA in the absence of chemical substance: 1.8
Yeast gene YJL068C
  The level of expressed mRNA in the presence of chemical substance/The level of expressed mRNA in the absence of chemical substance: 1.1
Yeast gene YJL088W
  The level of expressed mRNA in the presence of chemical substance/The level of expressed mRNA in the absence of chemical substance: 1.3
Yeast gene YJL099W
  The level of expressed mRNA in the presence of chemical substance/The level of expressed mRNA in the absence of chemical substance: 1.0
Yeast gene YJL121C
  level of expressed mRNA in the presence/in the absence of chemical substance: 1.0
Yeast gene YJL167W
  level of expressed mRNA in the presence/in the absence of chemical substance: 1.5
Yeast gene YJL172W
  The level of expressed mRNA in the presence of chemical substance/The level of expressed mRNA in the absence of chemical substance: 0.7
Yeast gene YJL216C
  level of expressed mRNA in the presence/in the absence of chemical substance: 1.9
Yeast gene YJL219W
  The level of expressed mRNA in the presence of chemical substance/The level of expressed mRNA in the absence of chemical substance: 1.5
Yeast gene YJR077C
  level of expressed mRNA in the presence/in the absence of chemical substance: 0.8
Yeast gene YJR137C
  The level of expressed mRNA in the presence of chemical substance/The level of expressed mRNA in the absence of chemical substance: 1.6
Yeast gene YJR143C
  level of expressed mRNA in the presence/in the absence of chemical substance: 0.7
Yeast gene YJR148W
  The level of expressed mRNA in the presence of chemical substance/The level of expressed mRNA in the absence of chemical substance: 0.6
